In brackets after ≈: the same amount, converted by molar mass.
Tests used:
[1] = Thermodynamic solubility in simulated intestinal fluid (TS in FaSSIF); format: physicochemical; conditions: thermodynamic from solid, 37° C.
Summary of the method: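 About 0.3 mg solid shaken in 1.5 mL FaSSIF-V2 at 1000 rpm, 37° C, 4 hours, in duplicate, then filtered. Filtrate quantified by HPLC-UV against 1 μM-200 μM standards diluted from 10 mM DMSO stock.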

[2] = Rat liver microsome stability (RLM) experiment; format: in vitro ADME; conditions: rat liver microsomal stability, Table 4; 0.5 mg protein/mL, NADPH, 37° C., 0-45 min
Protocol: Effect embodiment 3 Rat liver microsome stability (RLM) experiment
Rat liver microsomes (Xenotech, item No. R1000, lot No. 1310030), 100 mM potassium phosphate buffer solution (pH 7.4), 10 mM magnesium chloride.
Compound preparation: 5 μL of compound DMSO mother liquor (10 mM) was added to 495 μL of methanol to obtain an intermediate solution with a compound concentration of 100 μM. Then 50 μL of the intermediate solution was taken and dissolved in 450 μL of potassium phosphate buffer solution to obtain a test solution with a final concentration of 10 μM.
NADPH regeneration system (concentration of isocitrate dehydrogenase 1 unit/mL).
Liver microsomes (final concentration 0.5 mg protein/mL).
Reaction termination solution: cold acetonitrile containing 100 ng/mL Tolbutamide and 100 ng/mL Labetalol as an internal standard.
• (1) Preparation of buffer solution: • Buffer solution A: 1.0 L of 0.1 M potassium phosphate buffer solution containing 1.0 mM EDTA • Buffer solution B: 1.0 L of 0.1 M dipotassium phosphate buffer solution containing 1.0 mM EDTA • Buffer solution C: 0.1 M potassium phosphate buffer, 1.0 mM EDTA, pH 7.4, titrated with 700 mL of buffer solution B and buffer solution A, monitored by pH meter. • (2) Preparation of reference substance (ketanserin) and concentration of administration solution of the test substance:
[…]: […] 10 mM DMSO reference substance stock solution and test substance stock solution were added to 190 μL of ACN, respectively. 1.5 μM administration solution (containing 0.75 mg/mL liver microsomes): […] administration solution and 18.75 μL of 20 mg/mL liver microsomes were added to 479.75 μL of buffer C on a wet ice. • (3) NADPH was added to buffer solution C to obtain a NADPH stock solution (6 mM). • (4) 30 μL of 1.5 μM administration solution (containing 0.75 mg/mL of liver microsomes) was taken on the wet ice and added to the wells of the test plate at different time points (0-, 5-, 15-, 30-, 45-min), respectively. • (5) Firstly, 135 μL of ACN containing IS was added to the wells of a 0 min test plate, and then 15 μL of the NADPH stock solution (6 mM) was added. • (6) The test plate at other time points and the NADPH stock solution were pre-heated in a 37° C. water bath for 5 minutes. • (7) 15 μL of the NADPH stock solution (6 mM) was taken and added to a pre-incubated test plate, and the reaction was started and timed. • (8) At 5 min, 15 min, 30 min and 45 min, 135 μL of CAN containing IS was added to the corresponding test plate respectively, and the test was completed. • (9) Test plates were shaken with a shaker (IKA, MTS 2/4) for 10 min (600 rpm/min) and then centrifuged for 15 min (Thermo Multifuge×3R, 5594 g). • (10) 50 μL of supernatant from each well was added to a 96-well sample plate containing 50 μL of ultrapure water (Millipore, ZMQS50F01), and the samples were analyzed by LC/MS.

Compound	solubility thermodynamic at 4 h [1] [µg/mL]	RLM [2] [µL/min/mg]
COc1cc2nnc(-c3cc(C)on3)n2nc1OCc1ccc(OC2CCOCC2)nn1 [Embodiment 152]	44 (≈ 100 µM)	23
COc1cc2nnc(-c3cc(C)on3)n2nc1OCc1ccc(OC2CCOC2)nn1 (stereo not shown) [Embodiment 154]	177 (≈ 416 µM)	1
COc1cc2nnc(-c3cc(C)on3)n2nc1OCc1ccc2c(n1)CCN(C1COC1)C2 [Embodiment 84, 3-(7-Methoxy-6-((6-(oxetan-3-yl)-5,6,7,8-tetrahydro-1,6-naphthyridin-2-yl)methoxy)-[1,2,4]triazolo[4,3-b]pyridazin-3-yl)-5-methylisoxazole]	197 (≈ 438 µM)	0
COc1cc2nnc(-c3cc(C)on3)n2nc1OCc1ccc(C2(F)CN(C3COC3)C2)cn1 [Embodiment 128]	118 (≈ 253 µM)	6
COc1cc2nnc(-c3cc(C)on3)n2nc1OCc1ccc(OC2COC2)nn1 [Embodiment 153]	189 (≈ 460 µM)	5
COCc1ccc(COc2nn3c(-c4cc(C)on4)nnc3cc2OC)nn1 [Embodiment 151]	175 (≈ 456 µM)	1
COCCCOc1ccc(COc2nn3c(-c4noc(C)n4)nnc3cc2OC)nn1 [Embodiment 129]	85.4 (≈ 199 µM)	14

More lines, now with the values ahead:

solubility thermodynamic at 4 h [1] [µg/mL]	RLM [2] [µL/min/mg]	Compound
246 (≈ 625 µM)	6	COc1cc2nnc(-c3cc(C)on3)n2nc1OCc1ccc2c(n1)CN(C)C2 [Embodiment 160, 3-(7-Methoxy-6-((6-methyl-6,7-dihydro-5H-pyrrolo[3,4-b]pyridin-2-yl)methoxy)-[1,2,4]triazolo[4,3-b]pyridazin-3-yl)-5-methylisoxazole]
176 (≈ 361 µM)	15	COc1cc2nnc(-c3cc(C)on3)n2nc1OCc1ccc2c(n1)CCN(Cc1cc(C)on1)C2 [Embodiment 187]
239 (≈ 511 µM)	9	COc1cc2nnc(-c3cc(C)on3)n2nc1OCc1ccc2c(n1)CCN(C(CO)CO)C2 [Embodiment 185]
300 (≈ 702 µM)	0	COCCOCc1ccc(COc2nn3c(-c4cc(C)on4)nnc3cc2OC)nn1 [Embodiment 166]
95.4 (≈ 200 µM)	22	COc1cc2nnc(-c3cc(C)on3)n2nc1OCc1ccc2c(n1)CCN(C1CCOCC1)C2 [Embodiment 186]
38.9 (≈ 83.9 µM)	10	COc1cc2nnc(-c3cc(C)on3)n2nc1OCc1ccc2c(n1)CN(C1CCOCC1)C2 [Embodiment 253]
30.2 (≈ 71.4 µM)	10	COCc1cn2nc(COc3nn4c(-c5cc(C)on5)nnc4cc3OC)ccc2n1 [Embodiment 213]

Reference: US12637468B2, “Substituted [1,2,4]triazolo[4,3-b]pyridazines as GABAA receptor modulators” (SHANGHAI SIMR BIOTECHNOLOGY CO., LTD., priority 2019, dated 2026)
